A word on the solubility: it is how much of the substance goes into solution per volume.

*1 amine or outer side, *2 acyl side, *3 side chain or, on linkers, in order; H or OH if unused. Where a SMILES comes first, the peptide text is derived from it. [ ]: non-standard residue; d: D form. The star is where a group is joined. Doxorubicin(3'-N) = COc1cccc2c1C(=O)c1c(O)c3c(c(O)c1C2=O)C[C@@](O)(C(=O)CO)C[C@@H]3O[C@H]1C[C@H](N*)[C@H](O)[C@H](C)O1; Thyronine(3,5,3'-I3) = N[C@@H](Cc1cc(I)c(Oc2ccc(O)c(I)c2)c(I)c1)C(=O)O; Mal(CH2CH2O)6CH2CH2CO = O=C1C=CC(=O)N1CCOCCOCCOCCOCCOCCOCCC(=O)*; X9 = O=C([C@@H](Cc1cc(I)c(Oc2ccc(O)c(I)c2)c(I)c1)N[*:1])[*:2]; MaleimidoPEG4propanoyl = O=C1C=CC(=O)N1CCOCCOCCOCCOCCC(=O)*; Hexanoyl(6-maleimido) = O=C1C=CC(=O)N1CCCCCC(=O)*; Resiquimod = CCOCc1nc2c(N*)nc3ccccc3c2n1CC(C)(C)O; Propanoyl(3-maleimido) = O=C1C=CC(=O)N1CCC(=O)*; X1 = O=C1C=CC(=O)N1CCOCCOCCOCCC(=O)*; PABC = O=C(OCc1ccc(N[*:1])cc1)[*:2]; PEG6 = NCCOCCOCCOCCOCCOCCOCCC(=O)O; X3 = O=C1C=CC(=O)N1CCOCCOCCC(=O)*

For the first data set, the system named is Human hepatoma HepG2 cells. Nature of the data set: Human liver cancer HepG2 tumors in nude mice. As to conditions: 54 umol/kg IV once a week for 4 weeks. It counts as in vivo. Here is the method: • 1. Animals: nude mice aged 6-8 weeks, all female. • 2. Preparation of tumor models
Human hepatoma HepG2 cells were purchased from ATCC and identified according to the instructions provided. […] Randomization was performed when the tumor size reached 100 mm^3.
Treatment was then initiated, and the day of initiation of treatment was counted as Day 1. • 3) Treatment process
According to the clinical application of the corresponding compound, the drug was administered intravenously (IV). The compound and the control drug were administered at a dose of 54 umol/kg, and DOX could only be administered at a dose of 18 umol/kg due to toxicity limitations.
`COc1cccc2c1C(=O)c1c(O)c3c(c(O)c1C2=O)C[C@@](O)(C(=O)CO)C[C@@H]3O[C@H]1C[C@H](NC(=O)[C@H](CC(C)C)NC(=O)[C@H](CC(N)=O)NC(=O)[C@H](C)NC(=O)[C@H](C)NC(=O)CCOCCOCCOCCOCCN2C(=O)C=CC2=O)[C@H](O)[C@H](C)O1` [QHL-011-DOX] (MaleimidoPEG4propanoyl-AANL-{Doxorubicin(3'-N)}): the “Tumor volume (mm^3) Day 28” value stood at 98.1 ± 48.4 mm^3.

On to `COc1cccc2c1C(=O)c1c(O)c3c(c(O)c1C2=O)C[C@@](O)(C(=O)CO)C[C@@H]3O[C@H]1C[C@H](NC(=O)[C@H](CC(C)C)NC(=O)[C@H](CC(N)=O)NC(=O)[C@H](C)NC(=O)[C@H](C)NC(=O)CCOCCOCCN2C(=O)C=CC2=O)[C@H](O)[C@H](C)O1` [QHL-009-DOX] (X3-AANL-{Doxorubicin(3'-N)}), for which the “Tumor volume (mm^3) Day 28” value is given as 0 mm^3.

On to `COc1cccc2c1C(=O)c1c(O)c3c(c(O)c1C2=O)C[C@@](O)(C(=O)CO)C[C@@H]3O[C@H]1C[C@H](NC(=O)[C@H](CC(C)C)NC(=O)[C@H](CC(N)=O)NC(=O)[C@H](C)NC(=O)[C@H](C)NC(=O)CCOCCOCCOCCOCCOCCOCCN2C(=O)C=CC2=O)[C@H](O)[C@H](C)O1` [QHL-012-DOX] ({Mal(CH2CH2O)6CH2CH2CO}-AANL-{Doxorubicin(3'-N)}), for which the “Tumor volume (mm^3) Day 28” value came to 197.4 ± 104.5 mm^3.

Staying with this data set, now noted: Mus musculus, HepG2, iv, 672 h, read-out: Tumor inhibition rate (%) Day 28.
As to `COc1cccc2c1C(=O)c1c(O)c3c(c(O)c1C2=O)C[C@@](O)(C(=O)CO)C[C@@H]3O[C@H]1C[C@H](NC(=O)[C@H](CC(C)C)NC(=O)[C@H](CC(N)=O)NC(=O)[C@H](C)NC(=O)[C@H](C)NC(=O)CCOCCOCCOCCOCCN2C(=O)C=CC2=O)[C@H](O)[C@H](C)O1` [QHL-011-DOX] (MaleimidoPEG4propanoyl-AANL-{Doxorubicin(3'-N)}), the inhibition in vivo at 54 µmol/kg turned out to be 96.6%.

With `COc1cccc2c1C(=O)c1c(O)c3c(c(O)c1C2=O)C[C@@](O)(C(=O)CO)C[C@@H]3O[C@H]1C[C@H](NC(=O)[C@H](CC(C)C)NC(=O)[C@H](CC(N)=O)NC(=O)[C@H](C)NC(=O)[C@H](C)NC(=O)CCOCCOCCN2C(=O)C=CC2=O)[C@H](O)[C@H](C)O1` [QHL-009-DOX] (X3-AANL-{Doxorubicin(3'-N)}), the inhibition in vivo at 54 µmol/kg turned out to be 100%.

In the case of `COc1cccc2c1C(=O)c1c(O)c3c(c(O)c1C2=O)C[C@@](O)(C(=O)CO)C[C@@H]3O[C@H]1C[C@H](NC(=O)[C@H](CC(C)C)NC(=O)[C@H](CC(N)=O)NC(=O)[C@H](C)NC(=O)[C@H](C)NC(=O)[C@H](CC(=O)O)NC(=O)CCCCCN2C(=O)C=CC2=O)[C@H](O)[C@H](C)O1` [QHL-120-DOX] ({Hexanoyl(6-maleimido)}-DAANL-{Doxorubicin(3'-N)}), the inhibition in vivo at 54 µmol/kg worked out at 92.8%.

As for `COc1cccc2c1C(=O)c1c(O)c3c(c(O)c1C2=O)C[C@@](O)(C(=O)CO)C[C@@H]3O[C@H]1C[C@H](NC(=O)[C@H](CC(C)C)NC(=O)[C@H](CC(N)=O)NC(=O)[C@H](C)NC(=O)[C@H](C)NC(=O)CCOCCOCCOCCOCCOCCOCCN2C(=O)C=CC2=O)[C@H](O)[C@H](C)O1` [QHL-012-DOX] ({Mal(CH2CH2O)6CH2CH2CO}-AANL-{Doxorubicin(3'-N)}), the inhibition in vivo at 54 µmol/kg amounted to 93.2%.

`COc1cccc2c1C(=O)c1c(O)c3c(c(O)c1C2=O)C[C@@](O)(C(=O)CO)C[C@@H]3O[C@H]1C[C@H](NC(=O)[C@H](CC(C)C)NC(=O)[C@H](CC(N)=O)NC(=O)[C@H](C)NC(=O)[C@H](C)NC(=O)CCOCCOCCOCCOCCOCCOCCNC(=O)CCN2C(=O)C=CC2=O)[C@H](O)[C@H](C)O1` [QHL-096-DOX] ({Propanoyl(3-maleimido)-PEG6}-AANL-{Doxorubicin(3'-N)}): the inhibition in vivo at 54 µmol/kg was 100%.

Test system in the next data set: not listed separately
Description: Water solubility test (observation and HPLC). It counts as physicochemical. As to conditions: thermodynamic from solid. Here is the method: The compounds prepared in accordance with the examples of the disclosure and the reference compounds C1, C2, C3 and C4 were lyophilized (−70° C.).
In the case of `C[C@H](NC(=O)CCOCCOCCOCCN1C(=O)C=CC1=O)C(=O)N[C@@H](C)C(=O)N[C@H](CC(N)=O)C(=O)N[C@@H](Cc1cc(I)c(Oc2ccc(O)c(I)c2)c(I)c1)C(=O)O` [QHL-154-T3] (X1-AA[dN][Thyronine(3,5,3'-I3)]-OH), the solubility is greater than 10000 µg/mL.

As for `CCOCc1nc2c(NC(=O)OCc3ccc(NC(=O)[C@H](CC(N)=O)NC(=O)[C@H](C)NC(=O)[C@H](C)NC(=O)[C@H](CCC(=O)O)NC(=O)CCCCCN4C(=O)C=CC4=O)cc3)nc3ccccc3c2n1CC(C)(C)O` [QHL-116-Resiquimod] ({Hexanoyl(6-maleimido)}-EAAN[PABC]-Resiquimod), the solubility was greater than 10000 µg/mL.

`C[C@H](NC(=O)[C@H](C)NC(=O)[C@@H](CCC(=O)O)NC(=O)CCCCCN1C(=O)C=CC1=O)C(=O)N[C@@H](CC(N)=O)C(=O)N[C@H](Cc1cc(I)c(Oc2ccc(O)c(I)c2)c(I)c1)C(=O)O` [QHL-161-T3] ({Hexanoyl(6-maleimido)}-[dE]AAN[X9]-OH) came in with a solubility greater than 10000 µg/mL.

Regarding `C[C@@H](NC(=O)CCOCCOCCNC(=O)CCN1C(=O)C=CC1=O)C(=O)N[C@H](C)C(=O)N[C@H](CC(N)=O)C(=O)Nc1ccc(COC(=O)Nc2c(-c3nc4ccc(N5CCN(C)CC5)cc4[nH]3)c(=O)[nH]c3cccc(F)c23)cc1` [QHL-086 - Dovitinib], the solubility is greater than 20000 µg/mL.

The molecule `CCOCc1nc2c(NC(=O)OCc3ccc(NC(=O)[C@H](CC(N)=O)NC(=O)[C@H](C)NC(=O)[C@H](C)NC(=O)CCOCCOCCNC(=O)CCN4C(=O)C=CC4=O)cc3)nc3ccccc3c2n1CC(C)(C)O` [QHL-086-Resiquimod] gave a solubility greater than 10000 µg/mL.

Take `CCOCc1nc2c(NC(=O)OCc3ccc(NC(=O)[C@@H](CC(N)=O)NC(=O)[C@H](C)NC(=O)[C@H](C)NC(=O)CCOCCOCCN4C(=O)C=CC4=O)cc3)nc3ccccc3c2n1CC(C)(C)O` [QHL-005-Resiquimod]: the solubility was greater than 10000 µg/mL.

In the case of `CCOCc1nc2c(NC(=O)OCc3ccc(NC(=O)[C@H](CC(N)=O)NC(=O)[C@H](C)NC(=O)[C@H](C)NC(=O)CCOCCOCCOCCOCCOCCOCCNC(=O)CCN4C(=O)C=CC4=O)cc3)nc3ccccc3c2n1CC(C)(C)O` [QHL-095-Resiquimod], the solubility was greater than 10000 µg/mL.

On to `CCOCc1nc2c(NC(=O)OCc3ccc(NC(=O)[C@@H](CC(N)=O)NC(=O)[C@H](C)NC(=O)[C@H](C)NC(=O)CCOCCOCCOCCNC(=O)CCN4C(=O)C=CC4=O)cc3)nc3ccccc3c2n1CC(C)(C)O` [QHL-089-Resiquimod], for which the solubility is greater than 10000 µg/mL.
